Source: patent US8350064B2, “Fluorescent xanthenes and white light fluorophores” (Board of Supervisors of Louisiana State University And …, priority 2006, dated 2013)
Several values for one entry are separate records, joined by “and”; a condition that tells them apart may be missing. Equal values may be shown once. Entries after “also recorded” stand apart in the source; their conditions may differ.

Key:
[1] = pKa of SNAFR-2 from absorption and emission spectra as a function of pH; assay type: physicochemical; details: 50 mM phosphate buffer with 0.25% DMSO
Description: SNAFR-2 was dissolved in 50 mM phosphate buffer with 0.25% DMSO. As the pH increased, the absorption band centered at 550 nm increased. We attributed this band to the anionic form (A). Concurrently, the absorption band at ca. 460 nm decreased. We attributed the 460 nm band to the neutral form (N). Four isosbestic points were observed, at 484, 394, 327, and 304 nm. The 484 nm isosbestic point is near the 488 nm Ar ion laser line. Thus ratiometric measurements using SNAFR-2 as a probe may be conducted with an Ar ion laser and common, commercially available filter sets.
FIGS. 1A through 1H depict the spectral properties of 30 μM SNAFR-2 in 50 mM phosphate buffer with 0.25% DMSO at various pH values. The arrows indicate the spectral changes as the pH increased in order: 7, 8, 8.5, 9 and 10. A=anionic form. N=neutral form. FIG. 1A depicts Absorption spectra. The * indicates the positions of isosbestic points. FIGS. 1B-D depict excitation spectra, with emission monitored at 400 nm, 540 nm, and 620 nm respectively. FIGS. 1E-H depict emission spectra with excitations at 325 nm, 488 nm, 514 nm, and 543 nm respectively, wavelengths that correspond to common laser lines. All fluorescence spectra were normalized versus the maximum for each data set.
(§1) Most prior organic fluorophores have been limited by a narrow excitation range, which has hindered their use in multiplexing systems with other fluorophores. By contrast, the absorption and excitation spectra of SNAFR-2 allow it to be excited from 260 nm to 600, a range that includes various common laser lines, for example, HeCd at 325 nm, Ar ion at 488 and 514 nm, and HeNe at 543 nm (FIGS. 1A-D). SNAFR-2 is compatible with commercially available filter sets, such as those used in various spectroscopic instruments and fluorescence microscopes. […] The pK*a was calculated as 4.54 or 4.73 at room temperature, determined as pKa-em and pKa-abs, respectively.

[2] = Excited-state pK*a of SNAFR-2 estimated using the Forster equation; assay type: physicochemical
Excerpt: as §1

[3] = Spectral properties of SNAFR-2 in DMSO and MeOH; assay type: physicochemical; details: for Φ (quantum yield relative to rhodamine 6G in EtOH, Φ = 1): excitation 514 nm
Excerpt: The violet-blue emission increased in these organic solvents as compared to buffer. The green emission was attributed to the neutral form. As expected, the emission corresponding to the anionic form decreased in both solvents.

[4] = Photobleaching decay of SNAFR-2 in MeOH and fluorescein in 0.1 M NaOH; assay type: physicochemical; details: SNAFR-2 in MeOH; excitation 488 nm; at least 1800 s; compared with fluorescein in 0.1 M NaOH
Excerpt: We investigated the photostability of SNAFR-2 in MeOH. […] In MeOH, SNAFR-2 can be excited efficiently at 488 nm, which corresponds to an Ar ion laser line. This wavelength also matches well with the absorbance maximum (λabs=493 nm) of fluorescein in aqueous base. We conducted photostability studies in SNAFR-2 and fluorescein solutions, with the concentration of each selected to have an absorbance of 0.03 at 488 nm. The excitation band-pass was opened to 14 nm, the maximum allowed by the instrument we used. The fluorescence signal was collected using both the S- and T-channels of the instrument. S-channel data were collected through a dual monochromator set to the emission maximum of the particular fluorophore. T-channel data were collected through a 550 nm, long-pass filter. High voltage for the photomultiplier tube (PMT) was set to 950 and 500 V for the S and T channels, respectively. […] Fluorescence intensity was monitored at the emission maximum through a dual monochromator following excitation at 543 nm. […] FIGS. 9A and 9B depict the photobleaching decay of SNAFR-2 in MeOH, and of fluorescein in 0.1 M NaOH, monitored at the emission maximum of each compound (FIG. 9A), or through a 550 nm long-pass filter (FIG. 9B). The fluorescence intensity was normalized for each compound as compared to the intensity at time t=0.

HEp2 cells [5] = test: Cellular imaging of live cells (uptake and localization); assay type: cell-based; details: fluorescence imaging
Excerpt: There was a strong signal from the endoplasmic reticulum, and a smaller signal from mitochondria. […] No obvious staining of the plasma membrane was seen. However, since the plasma membrane has a large surface area, a relatively low surface signal might not have been detected. Three different filter sets, DAPI, FITC, and Texas Red, were used to select for wavelengths corresponding to the blue, green, and red emissions of SNAFR-2, respectively. […] However, autofluorescence was minimal with the longer wavelength filter sets, FITC and Texas Red.

HEp2 cells [6] = test: Cytotoxicity, CellTiter Blue Cell Viability assay; assay type: cell-based; details: 24 hours, up to 100 μM (FIG. 10), dilutions 10 μM to 1.25 μM
Description: Compound toxicity was tested by plating 7500 HEp2 cells per well on a Costar 96-well plate. Cells were allowed to grow for 48 hours and were then fed medium containing twofold dilutions of SNAFR-6 ranging from 10 μM to 1.25 μM. Also, 0.1% Saponin (Sigma) was used as a […] control. Cells were then incubated for 24 hours. Viability was measured using the CellTiter Blue Cell Viability assay (Promega) as per manufacturer's instructions. The fluorescence signal was detected using an excitation wavelength of 520 nm and emission wavelength of 584 nm. Viability was normalized against a scale in which untreated cells were rated 100%, and cells treated with 0.1% saponin were rated 0%. At the concentrations tested, the cytotoxicity of SNAFR-6 was low.

[7] = pKa of SNAFR-6 by absorption and fluorescence titration; aggregation in buffered media; assay type: physicochemical
Excerpt: Both the neutral and anionic forms could be excited simultaneously at wavelengths from ˜420 nm to ˜530 nm, a range that includes both the 488 and 514 nm argon ion laser spectral lines. The neutral emission could be selectively measured by using, for example, an FITC filter set. Also, the anionic form can be selectively excited using a longer excitation wavelength, ˜540 nm to ˜650 nm. Anionic emission can be selectively measured, using, for example, common Texas Red filter sets. SNAFR-6 is thus a versatile fluorophore for ratiometric measurements.

[8] = Fluorescence properties of SNAFR-6 (Stokes shift, quantum yield); assay type: physicochemical
Excerpt: The neutral form of SNAFR-6 could be excited from ˜420 nm to ˜530 nm. Its emission was centered at 571 nm. The anionic form could be efficiently excited over a broad range from ˜420 nm to ˜650 nm, with an excitation maximum at 536 nm. The anionic emission ranged from ˜575 nm to ˜850 nm, centered at 733 nm. SNAFR-6 thus has a very large Stokes shift, 197 nm.
FIG. 7 depicts an overlay of the normalized absorption spectrum of SNAFR-6 in 0.1 M NaOH solution, and the NIR emission from its anionic form in phosphate buffer (50 mM, pH 9.3):DMSO 99:1 v/v. The anionic emission at 733 nm was readily excited throughout a ˜200 nm window, a range that includes the common argon ion laser wavelengths of 488 nm and 514 nm. The absorption maximum is located at 536 nm.
The quantum yield of the anionic (NIR) emission of SNAFR-6 in DMSO was 0.09, measured by reference to rhodamine 6G in EtOH. This is a relatively high value for an NIR dye emitting at a wavelength longer than ˜730 nm.

[9] = method 0-0 excitation, room temperature

O=c1ccc2c(-c3ccccc3)c3ccc4cc(O)ccc4c3oc-2c1 [SNAFR-2]
pKa ([1]; Abs, λisobestic 304, λ1/λ2 265/304, 50 mM phosphate buffer, read-out: pKa): 8.48
pKa ([1]; Abs, λisobestic 304, λ1/λ2 296/304, 50 mM phosphate buffer, read-out: pKa): 8.54
pKa ([1]; Abs, λisobestic 304, λ1/λ2 312/304, 50 mM phosphate buffer, read-out: pKa): 8.48
pKa ([1]; Abs, λisobestic 327, λ1/λ2 312/327, 50 mM phosphate buffer, read-out: pKa): 8.54
pKa ([1]; Abs, λisobestic 327, λ1/λ2 344/327, 50 mM phosphate buffer, read-out: pKa): 8.51
pKa ([1]; Abs, λisobestic 327, λ1/λ2 380/327, 50 mM phosphate buffer, read-out: pKa): 8.51
pKa ([1]; Abs, λisobestic 394, λ1/λ2 344/394, 50 mM phosphate buffer, read-out: pKa): 8.58
pKa ([1]; Abs, λisobestic 394, λ1/λ2 380/394, 50 mM phosphate buffer, read-out: pKa): 8.68
pKa ([1]; Abs, λisobestic 484, λ1/λ2 469/484, 50 mM phosphate buffer, read-out: pKa): 8.47
pKa ([1]; Abs, λisobestic 484, λ1/λ2 511/484, 50 mM phosphate buffer, read-out: pKa): 8.54
pKa ([1]; Abs, λisobestic 484, λ1/λ2 543/484, 50 mM phosphate buffer, read-out: pKa): 8.52
pKa ([1]; Em, λex 325, λ1/λ2 541/597, 50 mM phosphate buffer, read-out: pKa): 8.32
pKa ([1]; Em, λex 325, λ1/λ2 575/597, 50 mM phosphate buffer, read-out: pKa): 8.32
pKa ([1]; Em, λex 325, λ1/λ2 627/597, 50 mM phosphate buffer, read-out: pKa): 8.38
pKa ([1]; Em, λex 488, λ1/λ2 542/600, 50 mM phosphate buffer, read-out: pKa): 8.33
pKa ([1]; Em, λex 488, λ1/λ2 575/600, 50 mM phosphate buffer, read-out: pKa): 8.36
pKa ([1]; Em, λex 488, λ1/λ2 630/600, 50 mM phosphate buffer, read-out: pKa): 8.35
pKa ([1]; Em, λex 514, λ1/λ2 539/595, 50 mM phosphate buffer, read-out: pKa): 8.31
pKa ([1]; Em, λex 514, λ1/λ2 575/595, 50 mM phosphate buffer, read-out: pKa): 8.32
pKa ([1]; Em, λex 514, λ1/λ2 623/595, 50 mM phosphate buffer, read-out: pKa): 8.34
pKa ([1]; absorption spectra, phosphate buffer with 0.25% DMSO, read-out: average pKa-abs): 8.53 ± 0.06
pKa ([1]; different excitation wavelengths, phosphate buffer with 0.25% DMSO, read-out: pKa values inferred from emission spectra): 8.31 to 8.38
pKa ([1]; different isosbestic points, phosphate buffer with 0.25% DMSO, read-out: pKa values calculated from absorption spectra): 8.47 to 8.68
pKa ([1]; emission spectra, phosphate buffer with 0.25% DMSO, read-out: average pKa-em): 8.34 ± 0.02
pK*a value ([2]; across different methods to calculate the excitation frequency): 3.3 to 6.3
pKa-abs* ([2]; method 0-0 absorption): 5.30
pKa-em* ([2]; method 0-0 absorption): 5.11
pKa-abs* [2, 9]: 4.73
pKa-em* [2, 9]: 4.54
pKa-abs* ([2]; method Absorption): 6.34
pKa-em* ([2]; method Absorption): 6.15
pKa-abs* ([2]; method Emission): 3.54
pKa-em* ([2]; method Emission): 3.34
pKa-abs* ([2]; method Excitation): 6.25
pKa-em* ([2]; method Excitation): 6.05
λem (peak locations in the emission spectra) ([3]; DMSO): 560 nm
Φ (quantum yield relative to rhodamine 6G in EtOH, Φ = 1) ([3]; DMSO): 0.33
λem (peak locations in the emission spectra) ([3]; MeOH): 550 nm
Φ (quantum yield relative to rhodamine 6G in EtOH, Φ = 1) ([3]; MeOH): 0.41
photostability (photobleaching decay) [4]: far more photostable than fluorescein; also recorded: excellent photostability; also recorded: considerably higher photostability
entry into cells (HEp2 cells [5]): readily entered HEp2 cells

O=c1ccc2c(-c3ccccc3)c3cc4ccc(O)cc4cc3oc-2c1 [SNAFR-6]
cytotoxicity (cell viability) (HEp2 cells [6]): low and low cytotoxicity
entry into cells (HEp2 cells [5]): readily enters cells
pKa ([7]; absorption titration): 8.18 ± 0.03
aggregation ([7]; buffered media): Significant aggregation in buffered media was not seen
pKa ([7]; fluorescence titration): 8.1 ± 0.03
quantum yield of the anionic (NIR) emission ([8]; DMSO, by reference to rhodamine 6G in EtOH): 0.09
Stokes shift ([8]; anionic form, excitation maximum 536 nm, emission 733 nm, aqueous solution): 197 nm and ~200 nm
